# Measurements from publication PMC4283194 (Neuroimage, 2014).
# Like-named read-outs stand apart in the source and are kept apart here.
# Legend:
# CB1 receptor [1] = biological target: T1, CB1 receptor (Homo sapiens, UniProt P21554); experiment: [11C]MePPEP PET, VT by rank shaping regularised spectral analysis (RS-SA); format: in vivo; set-up: VT median: unit not given beside the values
# T1 construct: assess the stability of CB1-receptor quantification in humans in vivo; from tissue; host or cells: living human brain (healthy volunteers), in vivo PET
# Experimental: (§1) Continuous and intermittent blood samples were collected to allow the subsequent generation of metabolite-corrected arterial plasma time–activity curves (TACs) ([Hammers et al., 2008]). During the first 15 min blood was withdrawn continuously at a rate of 300 ml/h and radioactivity measured in a BGO detection system ([Jones et al., 1994]). To quantify plasma and whole blood radioactivity, as well as to allow quantification of the parent fraction of the radiotracer, intermittent discrete (10 ml) samples were taken with heparinised syringes before the scan (baseline) and at the following time points after scan start: 3, 5, 10, 15, 20, 30, and 50 min. At 75 min, a larger 17 ml sample was taken to allow quantification despite radioactivity decay. […] Continuous plasma input functions (IF) were derived by cross-calibration and combination of the continuous and discrete data, multiplication with the fitted plasma-over-blood ratio, and correction for parent radiotracer fraction, as described in detail in previous studies ([Hammers et al., 2007a], [Jones et al., 1994]).
# VT values were generated directly from dynamic data sampled using ROIs with rank shaping (RS; orthogonalized-functional-base) regularisation of SA ([Turkheimer et al., 2003]) using in-house “Clickfit” software. As previously described by [Turkheimer et al. (2003)], we used the metabolite-corrected IF, a logarithmically spaced basis, an exponential range of bases extending to − 3.2, and the regional tissue TAC. TACs were weighted according to ([Gunn et al., 1998]):(3) Wi=Li/Tiforframei=1,2,3…35 [wi — weight for frame i; Li — length of frame i (seconds); and Ti — rate of true coincidences (per second)].
# The VT for each ROI was then obtained as the plateau of the VT(R), where R is the expected signal-to noise ratio that is used as the regularisation parameter (R) in rank-shaping (Fig. 2; ([Turkheimer et al., 2003])).
# [2] = set-up: method as in Terry et al., 2010a; conditions: 370 MBq injected; ref Terry et al., 2010a; cited from earlier work
# CB1 receptor [3] = biological target: T1, CB1 receptor; experiment: [11C]MePPEP PET, VT by reversible three-compartment model with variable blood volume (4kbv); format: in vivo; set-up: unit not given beside the values
# Experimental: as §1
# K1 and k2 were calculated as for the 2kbv compartmental model described above; in addition, two additional rate constants were estimated to describe transfer relating to the third compartment: k3, which describes the transfer from the free and non-specifically bound compartment to the specifically bound (third) compartment; and k4, which describes the opposite transfer ([Cunningham et al., 1991], [Huang et al., 1980]). Again, a variable blood volume term was also computed. According to compartmental model equations ([Gunn et al., 2001], [Watabe et al., 2006]):(2) VT=K1/k21+k3/k4.
# CB1 receptor [4] = biological target: T1, CB1 receptor; experiment: [11C]MePPEP PET, VT by classic spectral analysis parametric maps (SA-maps); format: in vivo
# Experimental: as §1
# The resulting parametric maps of VT values were then sampled in the eight selected ROIs.
# CB1 receptor [5] = biological target: T1, CB1 receptor; experiment: [11C]MePPEP PET, VT by reversible two-compartment model with variable blood volume (2kbv); format: in vivo
# Experimental: as §1
# In this model, three microparameters are derived: K1 is the influx of the ligand from the plasma to the tissue compartment containing free, non-specifically bound, and specifically bound ligand, k2 is the efflux constant from the ROI back to plasma ([Cunningham et al., 1991], [Huang et al., 1980]), and bv is a variable blood volume term. VT is then calculated according to the compartmental model equation ([Watabe et al., 2006]):(1) VT=K1/k2.
# CB1 receptor [6] = test system: CB1 receptor; set-up: method as in Terry et al., 2008, Terry et al., 2010b, Yasuno et al., 2008; conditions: monkey brain, ref Terry et al., 2008, Terry et al., 2010b, Yasuno et al.; cited from earlier work
# CB1 receptor [7] = biological target: T1, CB1 receptor; experiment: [11C]MePPEP PET, VT by classic spectral analysis on ROI data (SA-ROIs); format: in vivo; set-up: unit not given beside the values
# Experimental: as §1
# Volumes of distribution (VTs) ([Innis et al., 2007]) for each ROI were obtained from the dynamic images and the metabolite-corrected IFs using spectral analysis (SA) ([Cunningham and Jones, 1993], [Cunningham et al., 1993], [Turkheimer et al., 1994]). The fast frequency boundary was kept at the default value of 0.1 s^− 1. […] Based on previous work with another tracer with relatively slow kinetics ([Hammers et al., 2007a]), we changed this to 0.00063 s^− 1 (log10 = − 3.20) in order to reduce noise.
# CB1 receptor [8] = test system: CB1 receptor; set-up: method as in Terry et al., 2008, Terry et al., 2010b, Yasuno et al., 2008; conditions: determined using CB1 knockout mouse brain, ref Terry et al., 2008, Terry et al., 2010b, Yasuno et al.; cited from earlier work
# CB1 receptor [9] = biological target: T1, CB1 receptor; experiment: [11C]MePPEP PET, modified standard uptake values (mSUV); format: in vivo; conditions: ~30–60 min after injection
# Experimental: Modified standard uptake values (mSUVs; [Innis et al., 2007]) for frames 25–31, i.e. from 29 min 50 s to 58 min 50 s after injection, were also derived for the ROIs according to ([Goffin et al., 2011]):(4) activity×weightkg+70kg/2/injecteddose.
# T1 sequence (P21554 whole entry): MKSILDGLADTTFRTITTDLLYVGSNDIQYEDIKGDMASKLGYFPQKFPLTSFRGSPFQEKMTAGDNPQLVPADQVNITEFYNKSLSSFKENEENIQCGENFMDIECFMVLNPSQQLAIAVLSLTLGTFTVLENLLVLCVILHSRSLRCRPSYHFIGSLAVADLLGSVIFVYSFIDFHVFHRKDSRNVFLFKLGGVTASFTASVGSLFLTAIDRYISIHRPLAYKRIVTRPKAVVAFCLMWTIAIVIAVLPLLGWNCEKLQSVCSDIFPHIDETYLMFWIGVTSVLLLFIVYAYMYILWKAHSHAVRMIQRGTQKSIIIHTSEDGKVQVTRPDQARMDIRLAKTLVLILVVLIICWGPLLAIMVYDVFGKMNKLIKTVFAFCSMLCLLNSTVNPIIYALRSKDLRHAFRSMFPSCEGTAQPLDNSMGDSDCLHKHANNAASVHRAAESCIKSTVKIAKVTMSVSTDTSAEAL
smiles,measurement,setting,value
"COc1cccc([C@H]2C[C@@H](N[C@H](C)c3ccccc3)C(=O)N2c2ccc(C(F)(F)F)cc2)c1 [[^11C]MePPEP, (3R,5R)-5-(3-methoxy-phenyl)-3-((R)-1-phenyl-ethylamino)-1-(4-trifluoro-methyl-phenyl)-pyrrolidin-2-one]",VT median,CB1 receptor [1]; ACG,9.9
same,"VT from VT(R) plateau, example plot","CB1 receptor [1]; Hippocampus, single example",12
same,VT median,CB1 receptor [1]; IFG,9.9
same,VT median,CB1 receptor [1]; Pallidum,10.3
same,VT median,CB1 receptor [1]; Pons,4.3
same,VT median,CB1 receptor [1]; Thalamus,6.5
same,effective dose per scan,[2],~ 1.7 mSv
same,VT median,CB1 receptor [3]; ACG,9.0
same,VT median,CB1 receptor [3]; Accumbens,13.6
same,VT median,CB1 receptor [3]; Caudate,6.2
same,VT median,CB1 receptor [3]; Hippocampus,13.4
same,VT median,CB1 receptor [3]; Pallidum,10.6
same,VT median,CB1 receptor [3]; Pons,5.3
same,VT median,CB1 receptor [3]; Thalamus,6.1
same,VT median,CB1 receptor [4]; ACG,14.8
same,VT median,CB1 receptor [4]; Caudate,12.9
same,VT median,CB1 receptor [4]; Hippocampus,11.5
same,VT median,CB1 receptor [4]; IFG,14.8
same,VT median,CB1 receptor [4]; Pallidum,15.8
same,VT median,CB1 receptor [4]; Pons,4.4
same,VT median,CB1 receptor [4]; Thalamus,13.2
same,VT median,CB1 receptor [5]; ACG,10.3
same,VT median,CB1 receptor [5]; Hippocampus,8.0
same,VT median,CB1 receptor [5]; Pallidum,10.8
same,VT median,CB1 receptor [5]; Pons,3.0
same,VT median,CB1 receptor [5]; Thalamus,5.1
same,specific binding,CB1 receptor [6],> 85%
same,VT median,CB1 receptor [7]; ACG,14.4
same,VT median,CB1 receptor [7]; Accumbens,13.9
same,VT median,CB1 receptor [7]; Hippocampus,12.4
same,VT median,CB1 receptor [7]; IFG,13.9
same,VT median,CB1 receptor [7]; Pallidum,15.7
same,VT median,CB1 receptor [7]; Pons,6.0
same,VT median,CB1 receptor [7]; Thalamus,9.6
same,specific binding,CB1 receptor [8],65%
same,mSUV median,CB1 receptor [9]; ACG,3.2
same,mSUV median,CB1 receptor [9]; Accumbens,3.0
same,mSUV median,CB1 receptor [9]; Caudate,2.9
same,mSUV median,CB1 receptor [9]; IFG,3.2
same,mSUV median,CB1 receptor [9]; Pons,0.9
